The values that follow come from PubChem BioAssay AID624265 (Broad Institute, 2012).

The assay in a line: cytotoxicity in NIH3T3 fibroblasts, dose response, cytotoxicity control for HSP40 inhibitor project, cell-based, CellTiter-Glo luminescence, cherry-pick, set 2 (AID 624265).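 Further: cells exposed to compound for 48 hours before the ATP read; 0% = median neutral control signal and -100% = no luminescence left.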 The note with it: NIH3T3 viability, CellTiter-Glo ATP luminescence; at 50 µM (top of the series).

Activity calls are given as the source filed them.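 How the source made its calls: active means at a dose no more than twice the top valid tested dose, the fitted curve drops below -35% activity change; inactive means the rest, rising-direction activity included.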

With `Cc1ccsc1/C=C/c1ccc2cccc(O)c2n1`, the activity change, negative = toxicity was -8.21% (inactive).
The figure for `CCCCCCCn1c(=O)c(C(=O)OC)c(N)c2ccccc21` is -3.81% (inactive); for `O=C(COc1ccccc1F)Nc1nc(-c2ccccn2)cs1` it is -8.96% (inactive).
The figure for `CCn1c(CNc2ccc(Cl)cc2)nnc1SCc1ccc(Cl)cc1` is 12.6% (inactive); for `CCCCC(CC)c1nnc(NC(=O)c2cccs2)s1` (centres undefined) it is -1.51% (inactive).
As for `CC/C(=N/NC(=O)c1ccccc1O)c1c(C)[nH]n(-c2ccccc2)c1=O`, the activity change, negative = toxicity is -2.64% (inactive).
With `COc1ccc(C(=O)On2c(-c3ccc(Br)cc3)nc3ccccc3c2=O)cc1` the figure was 8% (inactive); with `Clc1ccc(-c2n[nH]c3c2CCC3)cc1Cl`, 1.25% (inactive); with `O/N=C/c1cc(Br)ccc1OCc1ccccc1F`, 7.25% (inactive).
In the case of `COc1ccc(Sc2nc(-c3ccccn3)ncc2OC)cc1`, the activity change, negative = toxicity is 5.95% (inactive).
With `COc1cnc(-c2ccccn2)nc1Sc1ccc(C)cc1` the figure was -14.4% (inactive).
The figure for `CCN1C(=O)C(CC(=O)Nc2ccccc2Cl)N(NC(=O)c2cccc(F)c2)C1=S` (centres undefined) is 11.9% (inactive).
With `COc1ccc2oc(=O)c(-c3csc(Nc4cccc(O)c4)n3)cc2c1` the figure was 4.36% (inactive); with `CCCc1cc(C(N)=O)c(NC(=O)c2cc(C)on2)s1`, 12.3% (inactive).
Turning to `O=C(Nc1ccc(Cl)cc1C(=O)Nc1ccc(Br)cn1)c1ccco1`, the activity change, negative = toxicity is -5.93% (inactive).
For the compound `O=c1c2ccccc2nc(-c2cccc(Cl)c2)n1O`, the activity change, negative = toxicity is 4.83% (inactive).
For `c1ccc(CSc2ccc(-c3ccccn3)nn2)nc1`, the activity change, negative = toxicity was -13% (inactive).
The figure for `Cc1cccc(C)c1N1C(=O)C2ON(c3ccccc3)C(c3ccncc3)C2C1=O` (centres undefined) is 15.5% (inactive); for `O=C(N/N=C/c1cc(Cl)cc([N+](=O)[O-])c1O)c1ccccc1NS(=O)(=O)c1cccs1` it is 2.81% (inactive).
The figure for `CCN(CC)C(=O)CSc1ncnc2sc(-c3ccccc3)cc12` is 9.41% (inactive); for `O=C(Nc1nnc(-c2cccs2)o1)c1cccc(Oc2ccccc2)c1` it is -7.72% (inactive).
For the compound `Cc1ccoc1C(=O)Nc1cccc(Oc2ccccc2)c1`, the activity change, negative = toxicity is 9.85% (inactive).
Take `Cc1ccc(-c2c3c(nc4sc(C(N)=O)c(N)c24)CCCC3)o1`: the activity change, negative = toxicity is 14.4% (inactive).
Take `COc1ccc(N(C(=O)c2ccncc2)S(=O)(=O)c2ccc(F)cc2)cc1`: the activity change, negative = toxicity is 0.026% (inactive).
With `CCCn1c(=O)c(C(=O)NCc2ccc(OC)c(OC)c2)c(O)c2ccccc21` the figure was 30.8% (inactive); with `CCn1c(CNc2ccc(Cl)cc2)nnc1SCc1ccccc1`, -7.39% (inactive).
With `C=CCOC(Cn1ccnc1)c1ccc(Cl)cc1Cl` (centres undefined) the figure was 9.44% (inactive).
With `Cc1ccc(Nc2cc(C)nn2-c2nc(C)cc(C)n2)cc1` the figure was -3.61% (inactive); with `O=C(c1ccccc1)c1ccc(Cn2cc(-c3ccccc3)nn2)cc1`, 5.39% (inactive).
Consider `CN(C)c1nc(SCc2ccc(Cl)cc2)nc2c1CCCC2`, for which the activity change, negative = toxicity is 9.05% (inactive).
Consider `CCN(CC)c1ccc(/C=N/NC(=O)c2c(Cl)cnn2C)c(O)c1`, for which the activity change, negative = toxicity is -24.5% (inactive).
With `Nc1nc(-c2ccccc2)c(-c2ccc([N+](=O)[O-])cc2)s1` the figure was 15.2% (inactive); with `CCC(Oc1ccc(Br)cc1Cl)C(=O)Nc1nnc(C2CC2)s1` (centres undefined), 5.54% (inactive); with `Cc1nc2ccc(C(C(F)(F)F)(C(F)(F)F)C(F)(F)F)cc2[nH]1`, 3.14% (inactive).
The figure for `COc1cc(NS(=O)(=O)c2ccc(C)cc2)c2ncccc2c1` is 5.44% (inactive); for `O=C1c2ccccc2-n2c1nc1ccccc1c2=O` it is -25.8% (inactive).
The figure for `c1ccc(Cn2cc(-c3cccnc3)cn2)cc1` is -0.362% (inactive); for `O=C(COc1ccc([N+](=O)[O-])cc1)Nc1nc(-c2ccccn2)cs1` it is -17.8% (inactive).
Turning to `O=C(N/N=C/c1ccc[nH]1)c1sc2ccccc2c1Cl`, the activity change, negative = toxicity was -15.3% (inactive).
Take `CC(=O)NC(c1ccc(C)cc1)c1cc([N+](=O)[O-])c2cccnc2c1O` (centres undefined): the activity change, negative = toxicity was -0.602% (inactive).
The figure for `Nc1cc2c3ccccc3ccc2c2ccccc12` is -1.86% (inactive); for `Clc1ccc(C2=NCCN2)cc1` it is 6.22% (inactive).
With `C[n+]1c2cc(N)ccc2cc2ccc(N)cc21`, the activity change, negative = toxicity is 14.2% (inactive).
With `COc1ccc(N(C)S(=O)(=O)c2ccc(Cl)c(C(=O)NNC(=O)c3ccccc3O)c2)cc1` the figure was 3.26% (inactive); with `O=C1OCC(CO)(CO)N=C1NNc1ccc(Cl)c(Cl)c1`, 2.06% (inactive); with `Cc1c(C(=O)O)cccc1-c1ccc(/C=N/Nc2ccc(Br)cc2)o1`, -0.158% (inactive).
Consider `O=P(Nc1cccnc1)(Oc1ccccc1Cl)Oc1ccccc1Cl`, for which the activity change, negative = toxicity was -1.87% (inactive).
With `CC12CCC(O)CC1=CCC1C2CCC2(C)C3=NN=CC3CC12` (centres undefined) the figure was 6.4% (inactive).
`COC(OC)c1ccc(C#N)c(SCc2ccccc2)n1`: the activity change, negative = toxicity was -6.85% (inactive).
On to `COC(=O)C1=C(C)NC(C)=C(C(=O)OCC(C)C)C1c1ccccc1[N+](=O)[O-]` (centres undefined), for which the activity change, negative = toxicity is -14.8% (inactive).
With `Cc1cc(Nc2ccccc2)nn1C(=O)c1ccccc1` the figure was 10% (inactive); with `O=C(c1ccccc1)c1coc2c1C(=O)c1ccccc1C2=O`, -10.3% (inactive); with `O=[N+]([O-])c1ccc2c(OCc3nnc(-c4ccccc4Br)o3)ncnc2c1`, -6.18% (inactive).
Take `COc1cccc(/C=N/NC(=O)c2nc(-c3ccccc3)cc(-c3ccccc3)n2)c1O`: the activity change, negative = toxicity is -8.68% (inactive).
With `CCOC(=O)c1ccc(N2C(=O)CC(N3CCC(O)(c4ccc(Cl)cc4)CC3)C2=O)cc1` (centres undefined) the figure was -0.824% (inactive); with `CCCC(C)Sc1nc2c([nH]1)c(=S)n(C)c(=O)n2C` (centres undefined), 0.769% (inactive).
The figure for `COC(=O)C1=NN(C(=O)c2cccc(Br)c2)C(O)(c2ccc(Cl)cc2)C1` (centres undefined) is -0.434% (inactive).
The figure for `O/N=C(\c1ccc(Cl)cc1)c1cc2ccccc2o1` is -9.72% (inactive).
For the compound `O=c1c(CO)cc(CO)cc(CO)c1O`, the activity change, negative = toxicity was -3.78% (inactive).
